The text below walks through data of ChEMBL document CHEMBL1125916 (1991).

A short description of the test: In vitro cytotoxicity in BALB/c3T3 mouse embryo fibroblasts. The note with it: BALB/c3T3, read-out: LC50.

Consider `O=P1(N(CCCl)CCCl)NCCCO1` (stereo unspecified) [CYCLOPHOSPHAMIDE ANHYDROUS], for which the CC50 came out at 37.6 µM.
